Reference: paper PMC10046369, “Low-Affinity/High-Selectivity Dopamine Transport Inhibition Sufficient to Rescue Cognitive Functions in the Aging Rat” (Biomolecules, 2023)

What was measured:
Experiment in all cases: biochemical
Design in all cases: KINOMEscan competition binding panel, per cent of control
Details in all cases: read-out: %Ctrl @ 2800nM
[1] = molecular target: T1, ABL1(F317I)-phosphorylated (Homo sapiens, UniProt P00519, F317I)
T1 construct: phosphorylated
Procedure, shortened: (§1)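 Competition binding panel (KINOMEscan) across 450 human kinases and disease-relevant mutants, run to the contractor's standard protocol. Values are % control: (test signal − positive control signal)/(negative control signal − positive control signal) × 100, with lower values indicating stronger binding.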

ACVR1 = ACVR1 (Homo sapiens, UniProt Q04771)
Procedure, shortened: as §1

AMPK-alpha1 = molecular target: T2, AMPK-alpha1 (Homo sapiens, UniProt Q13131)
T2 construct: gene PRKAA1
Procedure, shortened: as §1

BRSK1 = BRSK1 (Homo sapiens, UniProt Q8TDC3)
Procedure, shortened: as §1

CSK = CSK (Homo sapiens, UniProt P41240)
Chain of CSK (P41240 whole entry): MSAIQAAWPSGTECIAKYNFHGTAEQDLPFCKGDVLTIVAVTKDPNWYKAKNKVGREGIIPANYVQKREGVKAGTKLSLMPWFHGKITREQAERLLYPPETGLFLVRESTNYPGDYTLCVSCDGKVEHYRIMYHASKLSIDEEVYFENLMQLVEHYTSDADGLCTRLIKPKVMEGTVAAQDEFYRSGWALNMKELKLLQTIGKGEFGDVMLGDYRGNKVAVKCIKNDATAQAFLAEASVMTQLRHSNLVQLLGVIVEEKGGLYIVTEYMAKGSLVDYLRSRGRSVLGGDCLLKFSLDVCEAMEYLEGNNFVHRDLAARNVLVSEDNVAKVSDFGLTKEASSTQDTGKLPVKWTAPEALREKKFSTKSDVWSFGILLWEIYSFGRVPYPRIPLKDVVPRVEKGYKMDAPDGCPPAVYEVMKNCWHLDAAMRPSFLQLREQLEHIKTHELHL
Procedure, shortened: as §1

EPHA5 = EPHA5 (Homo sapiens, UniProt P54756)
Procedure, shortened: as §1

EPHB3 = EPHB3 (Homo sapiens, UniProt P54753)
Chain of EPHB3 (P54753 whole entry): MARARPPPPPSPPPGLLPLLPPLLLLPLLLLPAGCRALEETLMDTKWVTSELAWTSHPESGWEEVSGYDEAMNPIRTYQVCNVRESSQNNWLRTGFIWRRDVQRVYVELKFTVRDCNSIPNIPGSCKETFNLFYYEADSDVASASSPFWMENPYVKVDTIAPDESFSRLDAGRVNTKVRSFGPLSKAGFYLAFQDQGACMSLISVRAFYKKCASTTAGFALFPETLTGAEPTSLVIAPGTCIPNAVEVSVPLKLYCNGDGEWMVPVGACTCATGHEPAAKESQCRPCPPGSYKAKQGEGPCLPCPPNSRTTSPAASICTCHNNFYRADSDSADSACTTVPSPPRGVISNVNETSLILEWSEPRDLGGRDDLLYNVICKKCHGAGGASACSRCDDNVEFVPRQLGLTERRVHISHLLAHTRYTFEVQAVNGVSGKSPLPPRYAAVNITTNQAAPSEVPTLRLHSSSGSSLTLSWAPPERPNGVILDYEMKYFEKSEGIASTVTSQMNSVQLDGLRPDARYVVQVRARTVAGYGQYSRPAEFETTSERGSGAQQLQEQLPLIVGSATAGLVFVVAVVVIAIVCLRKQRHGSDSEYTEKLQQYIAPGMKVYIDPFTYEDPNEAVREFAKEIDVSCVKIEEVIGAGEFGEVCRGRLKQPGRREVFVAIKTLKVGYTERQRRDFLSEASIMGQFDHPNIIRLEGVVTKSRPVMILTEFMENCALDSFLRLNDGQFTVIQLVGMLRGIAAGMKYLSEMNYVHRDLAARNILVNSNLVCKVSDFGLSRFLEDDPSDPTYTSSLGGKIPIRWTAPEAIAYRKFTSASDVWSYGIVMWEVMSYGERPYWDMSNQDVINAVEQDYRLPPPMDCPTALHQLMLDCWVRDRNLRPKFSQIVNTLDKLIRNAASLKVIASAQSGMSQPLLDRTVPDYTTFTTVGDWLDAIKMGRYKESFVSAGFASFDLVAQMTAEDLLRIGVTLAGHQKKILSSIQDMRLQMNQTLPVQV
Procedure, shortened: as §1

FGFR2 = FGFR2 (Homo sapiens, UniProt P21802)
Procedure, shortened: as §1

FLT3(ITD) = FLT3(ITD) (Homo sapiens, UniProt P36888, ITD)
Procedure, shortened: as §1

FRK = FRK (Homo sapiens, UniProt P42685)
Procedure, shortened: as §1

FYN = FYN (Homo sapiens, UniProt P06241)
Procedure, shortened: as §1

GRK1 = GRK1 (Homo sapiens, UniProt Q15835)
Chain of GRK1 (Q15835 whole entry): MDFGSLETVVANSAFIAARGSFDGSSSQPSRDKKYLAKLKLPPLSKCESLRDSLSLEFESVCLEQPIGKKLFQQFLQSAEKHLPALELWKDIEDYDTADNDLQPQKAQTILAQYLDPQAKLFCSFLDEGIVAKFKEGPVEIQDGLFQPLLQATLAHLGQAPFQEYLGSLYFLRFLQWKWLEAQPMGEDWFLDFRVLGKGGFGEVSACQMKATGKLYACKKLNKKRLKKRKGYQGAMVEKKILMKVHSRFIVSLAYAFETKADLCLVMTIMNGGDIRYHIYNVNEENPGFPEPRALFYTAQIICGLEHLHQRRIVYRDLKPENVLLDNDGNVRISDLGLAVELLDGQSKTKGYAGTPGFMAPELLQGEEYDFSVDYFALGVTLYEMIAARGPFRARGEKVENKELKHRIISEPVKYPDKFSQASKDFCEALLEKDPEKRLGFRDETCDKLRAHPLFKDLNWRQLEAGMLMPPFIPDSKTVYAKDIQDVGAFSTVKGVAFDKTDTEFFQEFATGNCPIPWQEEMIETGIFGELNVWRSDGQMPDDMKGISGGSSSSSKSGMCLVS
Procedure, shortened: as §1

LRRK2 = LRRK2 (Homo sapiens, UniProt Q5S007)
Chain of LRRK2 (Q5S007 whole entry): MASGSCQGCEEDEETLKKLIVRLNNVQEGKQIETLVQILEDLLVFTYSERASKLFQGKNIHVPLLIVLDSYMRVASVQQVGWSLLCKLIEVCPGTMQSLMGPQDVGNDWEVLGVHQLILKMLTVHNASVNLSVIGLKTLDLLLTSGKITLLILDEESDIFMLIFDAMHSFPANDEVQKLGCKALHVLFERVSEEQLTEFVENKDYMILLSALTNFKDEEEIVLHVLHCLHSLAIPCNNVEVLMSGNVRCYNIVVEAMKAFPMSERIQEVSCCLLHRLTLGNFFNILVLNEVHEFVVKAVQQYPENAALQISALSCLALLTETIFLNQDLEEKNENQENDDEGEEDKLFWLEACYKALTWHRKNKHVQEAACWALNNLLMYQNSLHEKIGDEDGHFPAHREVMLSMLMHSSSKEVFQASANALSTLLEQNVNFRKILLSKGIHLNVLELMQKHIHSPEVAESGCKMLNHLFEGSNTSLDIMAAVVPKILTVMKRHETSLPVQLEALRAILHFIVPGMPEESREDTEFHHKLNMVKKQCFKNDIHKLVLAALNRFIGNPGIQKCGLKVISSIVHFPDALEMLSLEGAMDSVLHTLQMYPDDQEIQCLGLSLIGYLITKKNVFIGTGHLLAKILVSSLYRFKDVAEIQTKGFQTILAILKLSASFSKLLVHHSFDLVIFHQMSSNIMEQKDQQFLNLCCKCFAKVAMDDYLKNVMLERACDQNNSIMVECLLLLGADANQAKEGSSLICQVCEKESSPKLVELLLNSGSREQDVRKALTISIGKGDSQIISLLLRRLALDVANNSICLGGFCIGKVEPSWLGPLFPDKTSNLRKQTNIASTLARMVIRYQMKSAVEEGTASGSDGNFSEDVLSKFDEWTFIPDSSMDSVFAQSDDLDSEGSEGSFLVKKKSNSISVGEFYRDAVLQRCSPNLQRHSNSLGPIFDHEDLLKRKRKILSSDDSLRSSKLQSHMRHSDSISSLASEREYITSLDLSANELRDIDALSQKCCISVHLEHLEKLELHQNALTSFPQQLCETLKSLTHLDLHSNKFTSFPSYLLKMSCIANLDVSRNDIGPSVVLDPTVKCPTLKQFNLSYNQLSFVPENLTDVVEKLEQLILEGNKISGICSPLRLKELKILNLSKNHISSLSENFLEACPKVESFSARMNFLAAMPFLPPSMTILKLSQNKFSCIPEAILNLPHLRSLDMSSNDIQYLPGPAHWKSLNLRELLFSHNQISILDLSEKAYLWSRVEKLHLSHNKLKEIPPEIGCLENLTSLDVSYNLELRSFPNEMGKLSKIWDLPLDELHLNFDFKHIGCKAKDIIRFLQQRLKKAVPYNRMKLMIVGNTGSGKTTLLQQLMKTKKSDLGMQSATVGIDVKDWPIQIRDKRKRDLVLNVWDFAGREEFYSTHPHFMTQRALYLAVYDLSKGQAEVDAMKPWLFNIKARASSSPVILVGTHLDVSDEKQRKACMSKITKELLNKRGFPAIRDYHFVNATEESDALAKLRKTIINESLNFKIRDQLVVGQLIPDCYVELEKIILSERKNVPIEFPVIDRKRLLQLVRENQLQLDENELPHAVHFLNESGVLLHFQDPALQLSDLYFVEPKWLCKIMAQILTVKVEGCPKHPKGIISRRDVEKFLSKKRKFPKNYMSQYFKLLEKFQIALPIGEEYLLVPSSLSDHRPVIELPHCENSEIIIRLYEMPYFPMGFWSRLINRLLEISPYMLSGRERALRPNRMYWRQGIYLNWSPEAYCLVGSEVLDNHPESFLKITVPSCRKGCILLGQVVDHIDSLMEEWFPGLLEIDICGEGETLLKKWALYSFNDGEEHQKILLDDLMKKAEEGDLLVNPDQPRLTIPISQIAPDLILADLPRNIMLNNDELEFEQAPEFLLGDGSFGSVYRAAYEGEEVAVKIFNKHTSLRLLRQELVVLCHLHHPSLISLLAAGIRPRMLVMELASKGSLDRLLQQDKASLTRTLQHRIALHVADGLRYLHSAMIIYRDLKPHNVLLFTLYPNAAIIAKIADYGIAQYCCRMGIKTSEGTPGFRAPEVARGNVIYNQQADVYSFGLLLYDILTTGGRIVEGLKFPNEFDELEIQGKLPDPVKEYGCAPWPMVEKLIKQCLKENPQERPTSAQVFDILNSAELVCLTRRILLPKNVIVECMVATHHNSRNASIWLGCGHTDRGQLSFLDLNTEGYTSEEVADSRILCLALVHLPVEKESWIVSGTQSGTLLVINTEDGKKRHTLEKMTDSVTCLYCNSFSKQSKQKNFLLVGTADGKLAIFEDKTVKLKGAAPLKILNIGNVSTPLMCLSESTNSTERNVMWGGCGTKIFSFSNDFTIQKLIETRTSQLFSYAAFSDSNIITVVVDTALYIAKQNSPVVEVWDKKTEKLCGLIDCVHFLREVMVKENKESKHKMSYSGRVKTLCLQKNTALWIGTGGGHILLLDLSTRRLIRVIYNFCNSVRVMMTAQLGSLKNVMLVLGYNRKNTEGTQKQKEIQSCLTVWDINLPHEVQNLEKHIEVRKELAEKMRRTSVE
Procedure, shortened: as §1

LRRK2(G2019S) = LRRK2(G2019S) (Homo sapiens, UniProt Q5S007, G2019S)
Chain of LRRK2(G2019S) (Q5S007 whole entry G2019S): as the sequence (Q5S007 whole entry) above, with G2019S counted along it
Procedure, shortened: as §1

MAPKAPK5 = MAPKAPK5 (Homo sapiens, UniProt Q8IW41)
Procedure, shortened: as §1

MARK2 = MARK2 (Homo sapiens, UniProt Q7KZI7)
Procedure, shortened: as §1

MST3 = molecular target: T3, MST3 (Homo sapiens, UniProt Q9Y6E0)
T3 construct: gene STK24
Procedure, shortened: as §1

NEK6 = NEK6 (Homo sapiens, UniProt Q9HC98)
Chain of NEK6 (Q9HC98 whole entry): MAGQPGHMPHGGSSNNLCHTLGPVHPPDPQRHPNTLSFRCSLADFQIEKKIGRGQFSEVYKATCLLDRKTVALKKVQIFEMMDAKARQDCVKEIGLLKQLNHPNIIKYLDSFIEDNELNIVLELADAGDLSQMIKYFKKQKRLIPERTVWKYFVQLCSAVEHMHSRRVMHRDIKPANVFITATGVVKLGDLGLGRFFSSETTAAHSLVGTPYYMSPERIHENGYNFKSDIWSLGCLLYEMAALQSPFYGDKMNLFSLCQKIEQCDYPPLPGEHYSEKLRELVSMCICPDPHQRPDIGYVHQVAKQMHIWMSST
Procedure, shortened: as §1

PIK3CA(E545A) = PIK3CA(E545A) (Homo sapiens, UniProt P42336, E545A)
Procedure, shortened: as §1

PIK3CA(H1047Y) = PIK3CA(H1047Y) (Homo sapiens, UniProt P42336, H1047Y)
Procedure, shortened: as §1

PIM3 = PIM3 (Homo sapiens, UniProt Q86V86)
Procedure, shortened: as §1

PKAC-alpha = molecular target: T4, PKAC-alpha (Homo sapiens, UniProt P17612)
T4 construct: gene PRKACA
Procedure, shortened: as §1

PRKD1 = PRKD1 (Homo sapiens, UniProt Q15139)
Procedure, shortened: as §1

TAOK2 = TAOK2 (Homo sapiens, UniProt Q9UL54)
Procedure, shortened: as §1

TNK1 = TNK1 (Homo sapiens, UniProt Q13470)
Procedure, shortened: as §1

TNK2 = TNK2 (Homo sapiens, UniProt Q07912)
Procedure, shortened: as §1

[O-][S@@+](Cc1cncs1)C(c1ccccc1)c1ccccc1 [S-CE-123, (S)-5-((Benzhydrylsulfinyl)Methyl)Thiazole]
remaining binding at 2.8 µM [1]: 92%
remaining binding at 2.8 µM (ACVR1): 99%
remaining binding at 2.8 µM (AMPK-alpha1): 92%
remaining binding at 2.8 µM (BRSK1): 100%
remaining binding at 2.8 µM (CSK): 98%
remaining binding at 2.8 µM (EPHA5): 86%
remaining binding at 2.8 µM (EPHB3): 100%
remaining binding at 2.8 µM (FGFR2): 87%
remaining binding at 2.8 µM (FLT3(ITD)): 100%
remaining binding at 2.8 µM (FRK): 96%
remaining binding at 2.8 µM (FYN): 93%
remaining binding at 2.8 µM (GRK1): 100%
remaining binding at 2.8 µM (LRRK2): 100%
remaining binding at 2.8 µM (LRRK2(G2019S)): 96%
remaining binding at 2.8 µM (MAPKAPK5): 100%
remaining binding at 2.8 µM (MARK2): 100%
remaining binding at 2.8 µM (MST3): 87%
remaining binding at 2.8 µM (NEK6): 100%
remaining binding at 2.8 µM (PIK3CA(E545A)): 93%
remaining binding at 2.8 µM (PIK3CA(H1047Y)): 100%
remaining binding at 2.8 µM (PIM3): 100%
remaining binding at 2.8 µM (PKAC-alpha): 95%
remaining binding at 2.8 µM (PRKD1): 92%
remaining binding at 2.8 µM (TAOK2): 100%
remaining binding at 2.8 µM (TNK1): 74%
remaining binding at 2.8 µM (TNK2): 100%
